Test results taken from patent publication US8597875B2, “Method for diagnosing liver toxicity with sex specific biomarkers” (BASF SE, priority 2008, dated 2013).

What was measured:
[1] = test system: male rats; assay: Plasma metabolite profiling (GC-MS/LC-MS) for liver toxicity markers, 28-day gavage study, male rats; type: in vivo, rat; conditions: Table 3, male rats
Procedure: (§1) A group of each 5 male and female rats was dosed once daily with the indicated compounds (see tables below) at 10 and 100 mg/kg body weight per gavage over 28 days. Additional groups of each 5 male and female animals served as controls. Before starting the treatment period, animals, which were 62-64 days old when supplied, were acclimatized to the housing and environmental conditions for 7 days. All animals of the animal population were kept under the same constant temperature (20-24±3° C.) and the same constant humidity (30-70%). Each animal of the animal population was kept in a separate cage. The animals of the animal population are fed ad libitum. The food to be used was be essentially free of chemical or microbial contaminants. Drinking water was also offered ad libitum. Accordingly, the water was be free of chemical and microbial contaminants as laid down in the European Drinking Water Directive 98/83/EG. The illumination period was 12 hours light followed by 12 hours darkness (12 hours light, from 6:00 to 18:00, and 12 hours darkness, from 18:00 to 6:00).
(§2) In the morning of day 7, 14, and 28, blood was taken from the retroorbital venous plexus from fasted anaesthetized animals. From each animal, 1 ml of blood was collected with EDTA as anticoagulant. The samples were be centrifuged for generation of plasma. All plasma samples were covered with a N2 atmosphere and then stored at −80° C. until analysis.
(§3) For mass spectrometry-based metabolite profiling analyses plasma samples were extracted and a polar and a non-polar fraction was obtained. For GC-MS analysis, the non-polar fraction was treated with methanol under acidic conditions to yield the fatty acid methyl esters. Both fractions were further derivatised with O-methyl-hydroxyamine hydrochloride and pyridine to convert Oxo-groups to O-methyloximes and subsequently with a silylating agent before analysis. In LC-MS analysis, both fractions were reconstituted in appropriate solvent mixtures. HPLC was performed by gradient elution on reversed phase separation columns. For mass spectrometric detection metanomics proprietary technology was applied which allows target and high sensitivity MRM (Multiple Reaction Monitoring) profiling in parallel to a full screen analysis.
(§4) Following comprehensive analytical validation steps, the data for each analyte were normalized against data from pool samples. These samples were run in parallel through the whole process to account for process variability. The significance of treatment group values specific for sex, dose group and metabolite was determined by comparing means of the treated groups to the means of the respective untreated control groups using WELCH-test. Normalized treatment group values and their significance were fed into a database for further statistics and data mining processes.
(§5) The changes of the group of plasma metabolites being indicative for liver toxicity after treatment of the rats are shown in the following tables: […]

[2] = test system: female rats; assay: Plasma metabolite profiling (GC-MS/LC-MS) for liver toxicity markers, 28-day gavage study, female rats; type: in vivo, rat; conditions: for Glycerol-3-Phosphate, polar fraction, change of plasma metabolite / Glucose, change of plasma metabolite / Cholesterol, change of plasma metabolite: female rats
Procedure: as §1, §2, §3, §4, §5

[3] = Table 4, female rats, fh7 (day 7)
[4] = Table 4, female rats, fh14 (day 14)
[5] = Table 4, female rats, fh28 (day 28)

With `CC(=O)Nc1ccc(O)cc1` [N-Acetyl-p-Aminophenol] the “4-Hydroxyphenylpyruvic acid, change of plasma metabolite” value ([1]; mh7 (day 7)) was 3.04, the “18:1 Lyso PC, change of plasma metabolite” value ([1]; mh7 (day 7)) was 1.02 and the “Glycerol-3-Phosphate, polar fraction, change of plasma metabolite” value ([1]; mh7 (day 7)) was 1.41. For the same compound, the “alpha-Tocopherol, change of plasma metabolite” value ([1]; mh7 (day 7)) was 1.21, the “4-Hydroxyphenylpyruvic acid, change of plasma metabolite” value ([1]; mh14 (day 14)) was 4.89 and the “4-Hydroxysphinganine, change of plasma metabolite” value ([1]; mh14 (day 14)) was 1.61. For the same compound, the “18:1 Lyso PC, change of plasma metabolite” value ([1]; mh14 (day 14)) was 1.16, the “Glycerol-3-Phosphate, polar fraction, change of plasma metabolite” value ([1]; mh14 (day 14)) was 1.54 and the “Phosphatidylcholine No 01, change of plasma metabolite” value (“Phosphatidylcholine No 01, change” for short) ([1]; mh14 (day 14)) was 1.21. The “Behenic acid (C22:0), change of plasma metabolite” value [2, 3] was 1.11, the “Coenzyme Q9, change of plasma metabolite” value [2, 3] was 2.21 and the “Eicosatrienoic acid No 01, change of plasma metabolite” value (“Eicosatrienoic acid No 01, change” below) [2, 3] was 1.15. For the same compound, the “Glycerol, lipid fraction, change of plasma metabolite” value (shortened to “Glycerol, lipid fraction, change”) [2, 3] was 1.54, the “Glycerolphosphate, lipid fraction, change of plasma metabolite” value [2, 3] was 1.13 and the “Heptadecanoic acid (C17:0), change of plasma metabolite” value (“Heptadecanoic acid (C17:0), change” below) [2, 3] was 1.31. For the same compound, the “Linoleic acid (C18:cis[9,12]2), change of plasma metabolite” value (“Linoleic acid (C18:cis[9,12]2), change” below) [2, 3] was 1.43, the “Nervonic acid (C24:1), change of plasma metabolite” value [2, 3] was 1.19 and the “Palmitic acid (C16:0), change of plasma metabolite” value (“Palmitic acid (C16:0), change” below) [2, 3] was 1.16. The “Phosphatidylcholine No 01, change” value [2, 3] was 1.30, the “Sphingolipids (5-Methoxysphingosine), change of plasma metabolite” value [2, 3] was 1.31 and the “Sphingolipids (erythro-Sphingosine), change of plasma metabolite” value [2, 3] was 1.11. For the same compound, the “14-Methylhexadecanoic acid, change of plasma metabolite” value [2, 4] was 1.20, the “Behenic acid (C22:0), change of plasma metabolite” value [2, 4] was 1.39 and the “Coenzyme Q9, change of plasma metabolite” value [2, 4] was 1.39. The “DAG (C18:1, C18:2), change of plasma metabolite” value [2, 4] was 1.63, the “Eicosatrienoic acid No 01, change” value [2, 4] was 1.91 and the “Glycerol, lipid fraction, change” value [2, 4] was 1.56. The “Heptadecanoic acid (C17:0), change” value [2, 4] was 1.34, the “Linoleic acid (C18:cis[9,12]2), change” value [2, 4] was 1.82 and the “Nervonic acid (C24:1), change of plasma metabolite” value [2, 4] was 1.35. The “Palmitic acid (C16:0), change” value [2, 4] was 1.50, the “Phosphatidylcholine No 01, change” value [2, 4] was 1.34 and the “Sphingolipids (5-Methoxysphingosine), change of plasma metabolite” value [2, 4] was 1.41. For the same compound, the “Sphingolipids (erythro-Sphingosine), change of plasma metabolite” value [2, 4] was 1.29, the “TAG No 01, change of plasma metabolite” value [2, 4] was 2.93 and the “14-Methylhexadecanoic acid, change of plasma metabolite” value [2, 5] was 1.68. For the same compound, the “Coenzyme Q9, change of plasma metabolite” value [2, 5] was 1.19, the “DAG (C18:1, C18:2), change of plasma metabolite” value [2, 5] was 1.86 and the “Eicosanoic acid (C20:0), change of plasma metabolite” value [2, 5] was 1.73. For the same compound, the “Eicosatrienoic acid No 01, change” value [2, 5] was 2.08, the “Glycerol, lipid fraction, change” value [2, 5] was 2.04 and the “Glycerolphosphate, lipid fraction, change of plasma metabolite” value [2, 5] was 1.82. The “Heptadecanoic acid (C17:0), change” value [2, 5] was 1.64, the “Linoleic acid (C18:cis[9,12]2), change” value [2, 5] was 2.68 and the “Palmitic acid (C16:0), change” value [2, 5] was 2.03. The “TAG No 01, change of plasma metabolite” value [2, 5] was 3.85, the “Glycerol-3-Phosphate, polar fraction, change of plasma metabolite” value ([2]; Table 4, first listing (r8), fh7 (day 7)) was 1.68 and the “Glycerol-3-Phosphate, polar fraction, change of plasma metabolite” value ([2]; Table 4, first listing (r8), fh14 (day 14)) was 1.18. The “Glucose, change of plasma metabolite” value ([2]; Table 4, first listing (r10), fh7 (day 7)) was 1.25, the “Glucose, change of plasma metabolite” value ([2]; Table 4, first listing (r10), fh28 (day 28)) was 1.17 and the “Cholesterol, change of plasma metabolite” value ([2]; Table 4, first listing (r14), fh28 (day 28)) was 1.41. For the same compound, the “Cholesterol, change of plasma metabolite” value ([2]; Table 4, second listing (r26), fh7 (day 7)) was 1.21, the “Cholesterol, change of plasma metabolite” value ([2]; Table 4, second listing (r26), fh14 (day 14)) was 1.42 and the “Cholesterol, change of plasma metabolite” value ([2]; Table 4, second listing (r26), fh28 (day 28)) was 1.74. For the same compound, the “Glucose, change of plasma metabolite” value ([2]; Table 4, second listing (r27), fh28 (day 28)) was 1.04, the “Glycerol-3-Phosphate, polar fraction, change of plasma metabolite” value ([2]; Table 4, second listing (r28), fh7 (day 7)) was 1.93 and the “Glycerol-3-Phosphate, polar fraction, change of plasma metabolite” value ([2]; Table 4, second listing (r28), fh14 (day 14)) was 1.35. For the same compound, the “Glycerol-3-Phosphate, polar fraction, change of plasma metabolite” value ([2]; Table 4, second listing (r28), fh28 (day 28)) was 1.20.
